Assay results: US20250205268A1, “TREATMENT OF VIRUSES WITH ANTIVIRAL NUCLEOSIDES” (priority 2021, published 2025)
Read-outs that look alike come from different tables or passages of the source.

Tests used:
SARS-CoV-2 RNA = type: in vivo; conditions: interim; baseline RNA titer ≤10^6 copies/ml; EOT (Day 5)
SARS-CoV-2 [1] = type: in vivo; conditions: for WHO Clinical Progression Scale, participants in score category 0 / WHO Clinical Progression Scale, participants in score category 1-3 / WHO Clinical Progression Scale, participants in score category 4-5 / WHO Clinical Progression Scale, participants in score category 6-9 / WHO Clinical Progression Scale, participants in score category 10: final MITT; for WHO Clinical Progression Scale, odds ratio (95% CI): proportional odds model
SARS-CoV-2 [2] = type: in vivo
SARS-CoV-2 [3] = system: SARS-CoV-2
SARS-CoV-2 [4] = system: SARS-CoV-2; remark: listed apart in the source
[5] = MITT population, through day 29
[6] = safety population, all postbaseline visits through day 29
[7] = subgroup hospitalized after randomization, vs placebo

In the case of `CC(C)C(=O)OC[C@H]1O[C@@H](n2ccc(NO)nc2=O)[C@H](O)[C@@H]1O` [Compound A, {(2R,3S,4R,5R)-3,4-dihydroxy-5-[4-(hydroxyimino)-2-oxo-3,4-dihydropyrimidin-1 (2H)-yl]oxolan-2-yl}methyl 2-methylpropanoate], the “SARS-CoV-2 RNA titer, mean” value (SARS-CoV-2 RNA) is reported as 3.56 log^10 copies/ml, the “SARS-CoV-2 RNA titer, mean change from baseline” value (SARS-CoV-2 RNA) is reported as −1.00 log^10 copies/ml and the “WHO Clinical Progression Scale, participants in score category 0” value (SARS-CoV-2 [1]; Baseline) is reported as “(0.0) %”. The “WHO Clinical Progression Scale, participants in score category 1-3” value (SARS-CoV-2 [1]; Baseline) was “(100.0) %”, the “WHO Clinical Progression Scale, participants in score category 4-5” value (SARS-CoV-2 [1]; Baseline) was “(0.0) %” and the “WHO Clinical Progression Scale, participants in score category 6-9” value (SARS-CoV-2 [1]; Baseline) was “(0.0) %”. For the same molecule, the “WHO Clinical Progression Scale, participants in score category 10” value (SARS-CoV-2 [1]; Baseline) was “(0.0) %”, the “WHO Clinical Progression Scale, participants in score category 0” value (SARS-CoV-2 [1]; Day 3) was “(0.3) %” and the “WHO Clinical Progression Scale, participants in score category 1-3” value (SARS-CoV-2 [1]; Day 3) was “(97.7) %”. For the same molecule, the “WHO Clinical Progression Scale, participants in score category 4-5” value (SARS-CoV-2 [1]; Day 3) was “(1.6) %”, the “WHO Clinical Progression Scale, participants in score category 6-9” value (SARS-CoV-2 [1]; Day 3) was “(0.4) %” and the “WHO Clinical Progression Scale, participants in score category 10” value (SARS-CoV-2 [1]; Day 3) was “(0.0) %”. The “WHO Clinical Progression Scale, participants in score category 0” value (SARS-CoV-2 [1]; Day 5) was “(1.6) %”, the “WHO Clinical Progression Scale, participants in score category 1-3” value (SARS-CoV-2 [1]; Day 5) was “(95.1) %” and the “WHO Clinical Progression Scale, participants in score category 4-5” value (SARS-CoV-2 [1]; Day 5) was “(2.4) %”. For the same molecule, the “WHO Clinical Progression Scale, participants in score category 6-9” value (SARS-CoV-2 [1]; Day 5) was “(0.9) %”, the “WHO Clinical Progression Scale, participants in score category 10” value (SARS-CoV-2 [1]; Day 5) was “(0.0) %” and the “WHO Clinical Progression Scale, participants in score category 0” value (SARS-CoV-2 [1]; Day 10) was “(5.9) %”. For the same molecule, the “WHO Clinical Progression Scale, participants in score category 1-3” value (SARS-CoV-2 [1]; Day 10) was “(89.0) %”, the “WHO Clinical Progression Scale, participants in score category 4-5” value (SARS-CoV-2 [1]; Day 10) was “(4.0) %” and the “WHO Clinical Progression Scale, participants in score category 6-9” value (SARS-CoV-2 [1]; Day 10) was “(1.0) %”. For the same molecule, the “WHO Clinical Progression Scale, participants in score category 10” value (SARS-CoV-2 [1]; Day 10) was “(0.0) %”, the “WHO Clinical Progression Scale, participants in score category 0” value (SARS-CoV-2 [1]; Day 15) was “(15.2) %” and the “WHO Clinical Progression Scale, participants in score category 1-3” value (SARS-CoV-2 [1]; Day 15) was “(81.9) %”. For the same molecule, the “WHO Clinical Progression Scale, participants in score category 4-5” value (SARS-CoV-2 [1]; Day 15) was “(2.2) %”, the “WHO Clinical Progression Scale, participants in score category 6-9” value (SARS-CoV-2 [1]; Day 15) was “(0.6) %” and the “WHO Clinical Progression Scale, participants in score category 10” value (SARS-CoV-2 [1]; Day 15) was “(0.0) %”. The “WHO Clinical Progression Scale, participants in score category 0” value (SARS-CoV-2 [1]; Day 29) was “(48.4) %”, the “WHO Clinical Progression Scale, participants in score category 1-3” value (SARS-CoV-2 [1]; Day 29) was “(50.2) %” and the “WHO Clinical Progression Scale, participants in score category 4-5” value (SARS-CoV-2 [1]; Day 29) was “(0.9) %”. For the same molecule, the “WHO Clinical Progression Scale, participants in score category 6-9” value (SARS-CoV-2 [1]; Day 29) was “(0.3) %”, the “WHO Clinical Progression Scale, participants in score category 10” value (SARS-CoV-2 [1]; Day 29) was “(0.2) %” and the “WHO Clinical Progression Scale, odds ratio (95% CI)” value (SARS-CoV-2 [1]; Day 3) was 1.19 (0.62, 2.30). For the same molecule, the “WHO Clinical Progression Scale, odds ratio (95% CI)” value (SARS-CoV-2 [1]; Day 5) was 1.52 (0.96, 2.39), the “WHO Clinical Progression Scale, odds ratio (95% CI)” value (SARS-CoV-2 [1]; Day 10) was 1.58 (1.14, 2.20) and the “WHO Clinical Progression Scale, odds ratio (95% CI)” value (SARS-CoV-2 [1]; Day 15) was 1.36 (1.03, 1.78). For the same molecule, the “WHO Clinical Progression Scale, odds ratio (95% CI)” value (SARS-CoV-2 [1]; Day 29) was 1.04 (0.84, 1.29), the “proportion of participants who had a COVID-19-related acute care visit” value (SARS-CoV-2 [2]; [5]) was 6.6% and the “proportion of participants who had an acute care visit” value (SARS-CoV-2 [2]; [5]) was 7.2%. The “RRR, COVID-19-related acute care visit” value (SARS-CoV-2 [2]; MITT population, vs placebo) was 33.8%, the “RRR, acute care visit” value (SARS-CoV-2 [2]; MITT population, vs placebo) was 32.1% and the “RRR, all respiratory interventions” value (SARS-CoV-2 [2]; MITT population, vs placebo) was 34.3%. For the same molecule, the “RRR, high-flow heated and humidified device” value (SARS-CoV-2 [2]; MITT population, vs placebo) was 26.1%, the “RRR, invasive mechanical ventilation” value (SARS-CoV-2 [2]; MITT population, vs placebo) was 64.1% and the “RRR, noninvasive mechanical ventilation” value (SARS-CoV-2 [2]; MITT population, vs placebo) was 75.4%. The “RRR, oxygen therapy with conventional oxygen” value (SARS-CoV-2 [2]; MITT population, vs placebo) was 23.6%, the “mean change from baseline in CRP values versus placebo” value (SARS-CoV-2 [2]; [6]) was “earlier and larger reductions” and the “mean change from baseline in SpO2 values versus placebo” value (SARS-CoV-2 [2]; [6]) was “earlier and larger improvements”. The “median time to hospital discharge” value (SARS-CoV-2 [2]; subgroup hospitalized after randomization) was 9 days, the “RRR, all respiratory interventions” value (SARS-CoV-2 [2]; [7]) was 21.3% and the “RRR, conventional oxygen” value (SARS-CoV-2 [2]; [7]) was 12.8%. For the same molecule, the “RRR, high-flow heated and humidified device” value (SARS-CoV-2 [2]; [7]) was −4.7%, the “RRR, invasive mechanical ventilation” value (SARS-CoV-2 [2]; [7]) was 49.2% and the “RRR, noninvasive mechanical ventilation” value (SARS-CoV-2 [2]; [7]) was 65.1%. The tolerability (SARS-CoV-2 [3]; 5-day course up to 800 mg twice daily) was “well tolerated”, the “Median time to sustained recovery” value (SARS-CoV-2 [3]; all arms, hospitalized) was 9 days and the “day 29 recovery rates” value (SARS-CoV-2 [3]; all arms, hospitalized) was 81.5%-85.2%. For the same molecule, the “hematologic toxicity based on prespecified adverse events” value (SARS-CoV-2 [3]; all doses) was “no evidence of hematologic toxicity”, the clinical benefit (SARS-CoV-2 [3]; hospitalized patients with COVID-19) was “clinical benefit was not observed” and the “participants with undetectable SARS-CoV-2 RNA at day 10, more than placebo” value (SARS-CoV-2 [3]; participants with ≤5 days since sign/symptom onset) was 14.3%-36.4%. The “number of doses sufficient to demonstrate efficacy” value (H1N1; administered every 12 hours, ferret model of influenza) was “Three”, the “dose demonstrating efficacy against H1N1” value (H1N1; ferrets) was 7 mg/kg BID and the “hematological, pancreatic, or hepatic parameters” value (SARS-CoV-2 [4]; Part 1, as a function of dose or treatment) was “no clinically meaningful abnormalities”. The dose-limiting toxicity (SARS-CoV-2 [4]; highest dose (800 mg), eDMC review of IA2 data) was “no dose-limiting toxicity was observed”, the “SARS-CoV-2 VL compared with placebo” value (SARS-CoV-2 [4]; in vivo) was “reduces the SARS-CoV-2 VL compared with placebo” and the tolerability (SARS-CoV-2 [4]; non-hospitalized participants in Part 1) was “well-tolerated”.
